Test results reported in PubChem BioAssay AID2060502 (Molecular Pharmacology Branch, DTP, NCI, 2025).
pIC50: −log10 of the molar value. Values belong to the compound of their own block, whether it stands above or below them.

Test system: 885724-159-R-J1-PDC complex spheroid viability
Assay: Anticancer human tumor 885724-159-R-J1-PDC patient-derived pancreatic adenocarcinoma cell line growth inhibition [GQUAD]
Settings: for pIC50: curve of first compound; for viability, T/C: stronger effect = lower value
How it was run: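 Tumor cells were grown as complex spheroids with HUVEC endothelial cells and mesenchymal stem cells as stroma. G-quadruplex stabilizers were combined with targeted agents over half-log dilutions from near the clinical Cmax, or from 10 microM.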

[1] = second compound 0.0316 µM, first compound 0.0316 µM
[2] = second compound 0.0316 µM, first compound 0.316 µM
[3] = second compound 0.1 µM, first compound 0.0316 µM
[4] = second compound 0.1 µM, first compound 0.316 µM
[5] = second compound 0.316 µM, first compound 0.0316 µM
[6] = second compound 0.316 µM, first compound 0.316 µM
[7] = second compound 1 µM, first compound 0.0316 µM
[8] = second compound 1 µM, first compound 0.316 µM
[9] = second compound 3.16 µM, first compound 0.0316 µM
[10] = second compound 3.16 µM, first compound 0.316 µM
[11] = second compound 10 µM, first compound 0.0316 µM
[12] = second compound 10 µM, first compound 0.316 µM
[13] = second compound 0.0316 µM, first compound 0.000999 µM
[14] = second compound 0.0316 µM, first compound 0.00316 µM
[15] = second compound 0.0316 µM, first compound 0.00999 µM
[16] = second compound 0.0316 µM, first compound 0.0999 µM
[17] = second compound 0.1 µM, first compound 0.000999 µM
[18] = second compound 0.1 µM, first compound 0.00316 µM
[19] = second compound 0.1 µM, first compound 0.00999 µM
[20] = second compound 0.1 µM, first compound 0.0999 µM
[21] = second compound 0.316 µM, first compound 0.000999 µM
[22] = second compound 0.316 µM, first compound 0.00316 µM
[23] = second compound 0.316 µM, first compound 0.00999 µM
[24] = second compound 0.316 µM, first compound 0.0999 µM
[25] = second compound 1 µM, first compound 0.000999 µM
[26] = second compound 1 µM, first compound 0.00316 µM
[27] = second compound 1 µM, first compound 0.00999 µM
[28] = second compound 1 µM, first compound 0.0999 µM
[29] = second compound 3.16 µM, first compound 0.000999 µM
[30] = second compound 3.16 µM, first compound 0.00316 µM
[31] = second compound 3.16 µM, first compound 0.00999 µM
[32] = second compound 3.16 µM, first compound 0.0999 µM
[33] = second compound 10 µM, first compound 0.000999 µM
[34] = second compound 10 µM, first compound 0.00316 µM
[35] = second compound 10 µM, first compound 0.00999 µM
[36] = second compound 10 µM, first compound 0.0999 µM
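Also: spheroids exposed to agents for seven days before readout.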
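For viability, T/C in this document: percent of vehicle control viability where 100% = DMSO wells.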

pIC50 (second compound 0.0316 µM): < 5.00
pIC50 (second compound 0.1 µM): < 5.00
pIC50 (second compound 0.316 µM): < 5.00
pIC50 (second compound 1 µM): < 5.00
pIC50 (second compound 3.16 µM): < 5.00
pIC50 (second compound 10 µM): < 5.00
Structure (SMILES): C=CC(=O)N1CCN(c2nc(=O)n(-c3c(C)ccnc3C(C)C)c3nc(-c4c(O)cccc4F)c(F)cc23)C(C)C1 (stereo unspecified) + Cc1cnc(CNC(=O)c2c(=O)c3ccc(N4CCCN(C)CC4)nc3n3c2sc2ccccc23)cn1
viability, T/C [1]: 107%
viability, T/C (second compound 0.0316 µM, first compound 0.1 µM): 114%
viability, T/C [2]: 115%
viability, T/C (second compound 0.0316 µM, first compound 1 µM): 107%
viability, T/C (second compound 0.0316 µM, first compound 3.16 µM): 100%
viability, T/C (second compound 0.0316 µM, first compound 10 µM): 91.5%
viability, T/C [3]: 101%
viability, T/C (second compound 0.1 µM, first compound 0.1 µM): 102%
viability, T/C [4]: 107%
viability, T/C (second compound 0.1 µM, first compound 1 µM): 124%
viability, T/C (second compound 0.1 µM, first compound 3.16 µM): 125%
viability, T/C (second compound 0.1 µM, first compound 10 µM): 111%
viability, T/C [5]: 103%
viability, T/C (second compound 0.316 µM, first compound 0.1 µM): 106%
viability, T/C [6]: 110%
viability, T/C (second compound 0.316 µM, first compound 1 µM): 89.2%
viability, T/C (second compound 0.316 µM, first compound 3.16 µM): 124%
viability, T/C (second compound 0.316 µM, first compound 10 µM): 96%
viability, T/C [7]: 86.5%
viability, T/C (second compound 1 µM, first compound 0.1 µM): 91%
viability, T/C [8]: 88.2%
viability, T/C (second compound 1 µM, first compound 1 µM): 91.6%
viability, T/C (second compound 1 µM, first compound 3.16 µM): 100%
viability, T/C (second compound 1 µM, first compound 10 µM): 81%
viability, T/C [9]: 74.5%
viability, T/C (second compound 3.16 µM, first compound 0.1 µM): 84%
viability, T/C [10]: 89.3%
viability, T/C (second compound 3.16 µM, first compound 1 µM): 81.4%
viability, T/C (second compound 3.16 µM, first compound 3.16 µM): 89.4%
viability, T/C (second compound 3.16 µM, first compound 10 µM): 76.8%
viability, T/C [11]: 74.4%
viability, T/C (second compound 10 µM, first compound 0.1 µM): 74%
viability, T/C [12]: 74.7%
viability, T/C (second compound 10 µM, first compound 1 µM): 83.4%
viability, T/C (second compound 10 µM, first compound 3.16 µM): 78%
viability, T/C (second compound 10 µM, first compound 10 µM): 68.5%

pIC50 (second compound 0.0316 µM): < 6.50
pIC50 (second compound 0.1 µM): < 6.50
pIC50 (second compound 0.316 µM): < 6.50
pIC50 (second compound 1 µM): < 6.50
pIC50 (second compound 3.16 µM): < 6.50
pIC50 (second compound 10 µM): < 6.50
Structure (SMILES): CC[C@@]1(O)C(=O)OCc2c1cc1n(c2=O)Cc2cc3c(CN(C)C)c(O)ccc3nc2-1 + Cc1cnc(CNC(=O)c2c(=O)c3ccc(N4CCCN(C)CC4)nc3n3c2sc2ccccc23)cn1
viability, T/C [13]: 117%
viability, T/C [14]: 95.5%
viability, T/C [15]: 103%
viability, T/C [1]: 106%
viability, T/C [16]: 89.1%
viability, T/C [2]: 65.5%
viability, T/C [17]: 125%
viability, T/C [18]: 98.7%
viability, T/C [19]: 101%
viability, T/C [3]: 103%
viability, T/C [20]: 85.5%
viability, T/C [4]: 75.2%
viability, T/C [21]: 96.1%
viability, T/C [22]: 104%
viability, T/C [23]: 87.6%
viability, T/C [5]: 95%
viability, T/C [24]: 100%
viability, T/C [6]: 70.1%
viability, T/C [25]: 88.6%
viability, T/C [26]: 84.1%
viability, T/C [27]: 95.2%
viability, T/C [7]: 80.3%
viability, T/C [28]: 87.8%
viability, T/C [8]: 70.3%
viability, T/C [29]: 74.8%
viability, T/C [30]: 69.5%
viability, T/C [31]: 75%
viability, T/C [9]: 75.9%
viability, T/C [32]: 73.9%
viability, T/C [10]: 64.5%
viability, T/C [33]: 70.7%
viability, T/C [34]: 81.1%
viability, T/C [35]: 72.7%
viability, T/C [11]: 74.2%
viability, T/C [36]: 80%
viability, T/C [12]: 69.1%

pIC50 (second compound 0.0316 µM): 7.09
pIC50 (second compound 0.1 µM): 7.38
pIC50 (second compound 0.316 µM): 7.32
pIC50 (second compound 1 µM): 7.24
pIC50 (second compound 3.16 µM): 7.48
pIC50 (second compound 10 µM): 7.49
Structure (SMILES): CCc1c2c(nc3ccc(O)cc13)-c1cc3c(c(=O)n1C2)COC(=O)[C@]3(O)CC + Cc1cnc(CNC(=O)c2c(=O)c3ccc(N4CCCN(C)CC4)nc3n3c2sc2ccccc23)cn1
viability, T/C [13]: 101%
viability, T/C [14]: 97.1%
viability, T/C [15]: 75.1%
viability, T/C [1]: 66.2%
viability, T/C [16]: 54.1%
viability, T/C [2]: 9.27%
viability, T/C [17]: 114%
viability, T/C [18]: 90.5%
viability, T/C [19]: 68.8%
viability, T/C [3]: 60.4%
viability, T/C [20]: 45.2%
viability, T/C [4]: 7.81%
viability, T/C [21]: 93.2%
viability, T/C [22]: 82.7%
viability, T/C [23]: 72.2%
viability, T/C [5]: 54.4%
viability, T/C [24]: 42.4%
viability, T/C [6]: 4.89%
viability, T/C [25]: 77.2%
viability, T/C [26]: 78.6%
viability, T/C [27]: 63.8%
viability, T/C [7]: 61.3%
viability, T/C [28]: 41.7%
viability, T/C [8]: 0.87%
viability, T/C [29]: 73.9%
viability, T/C [30]: 72.1%
viability, T/C [31]: 57.8%
viability, T/C [9]: 48.3%
viability, T/C [32]: 36.7%
viability, T/C [10]: 0.45%
viability, T/C [33]: 66.5%
viability, T/C [34]: 69.6%
viability, T/C [35]: 53.6%
viability, T/C [11]: 54.8%
viability, T/C [36]: 30.7%
viability, T/C [12]: 0.45%
